Reference: ChEMBL document CHEMBL4825684, “Design, synthesis and biological evaluation of N-anthraniloyl tryptamine derivatives as pleiotropic molecules for the therapy of malignant glioma” (Eur J Med Chem, 2021)
Activity calls are given as the source filed them. The calls are words filed in the database; no cut-off is given here.

Experiments:
U-251 [1] = experiment: Induction of apoptosis in human U-251 cells assessed as late apoptotic cells at 2 uM incubated for 48 hrs by […] double staining based flow cytometry assay (reference value: 1.39%); assay type: functional
U-87 MG [2] = experiment: Induction of apoptosis in human U-87 MG cells assessed as decrease in Bcl2/Bax ratio at 2 to 4 uM incubated for 48 hrs by Western blot analysis relative to control; assay type: functional, cell-based; conditions: U-87MG ATCC, dose 2-4 µM
[3] = Toxicity in rat C6 cells inoculated orthotopic Sprague-Dawley rat model assessed as changes in blood at 50 mg/kg, ip twice a day administered for 13 days of tumor implantation by routine blood test; assay type: organism-based; conditions: in vivo, 312 h, time 13 day
U-251 [4] = experiment: Antiproliferative activity against human U-251 cells assessed as decrease in proliferation at 4 uM measured after 24 hrs by EdU assay relative to control; assay type: functional, cell-based
U-251 [5] = experiment: Antimigratory activity against human U-251 cells assessed as inhibition of migration incubated for 24 hrs by matrigel trans well plate assay; assay type: functional, cell-based; conditions: dose 1-4 µM
U-87 MG [6] = experiment: Cell cycle arrest in human U-87 MG cells assessed as accumulation at G2/M phase at 8 uM incubated for 48 hrs by PI staining based flow cytometry assay (reference value: 8%); assay type: functional, U-87MG ATCC
U-87 MG [7] = experiment: Antimigratory activity against human U-87 MG cells assessed as inhibition of migration incubated for 24 hrs by matrigel trans well plate assay; assay type: functional, cell-based; conditions: U-87MG ATCC
U-251 [8] = experiment: Induction of apoptosis in human U-251 cells assessed as viable cells at 2 uM incubated for 48 hrs by […] double staining based flow cytometry assay (reference value: 96.6%); assay type: functional; conditions: read-out: Activity
U-87 MG [9] = experiment: Cytotoxicity against human U-87 MG cells assessed as cell viability at 4 uM measured up to 24 hrs; assay type: functional, U-87MG ATCC; conditions: time hrs <=24, read-out: Activity
[10] = Toxicity in rat C6 cells inoculated orthotopic Sprague-Dawley rat model at 50 mg/kg, ip twice a day administered for 25 days; assay type: organism-based; conditions: in vivo, 600 h, time 25 day
U-87 MG [11] = experiment: Induction of apoptosis in human U-87 MG cells assessed as viable cells at 4 uM incubated for 48 hrs by Annexin VIM double staining based flow cytometry assay (reference value: 97.8%); assay type: functional, U-87MG ATCC; conditions: read-out: Activity
C6 [12] = experiment: Antitumor activity against rat C6 cells inoculated orthotopic Sprague-Dawley rat model assessed as suppression of glioma cells to invade the surrounding brain tissue at 50 mg/kg, ip twice a day administered for 13 days of tumor implantation by hematoxylin-eosin staining analysis; assay type: functional, organism-based; conditions: time 13.0 day
U-251 [13] = experiment: Induction of apoptosis in human U-251 cells assessed as necrotic cells at 8 uM incubated for 48 hrs by […] double staining based flow cytometry assay (reference value: 1.32%); assay type: functional
[14] = Tmax in Sprague-Dawley rat at 60 mg/kg, ip measured up to 24 hrs by LC-MS analysis; assay type: ADME, organism-based; conditions: in vivo
U-87 MG [15] = experiment: Induction of apoptosis in human U-87 MG cells assessed as increase in ROS generation at 1 to 4 uM incubated for 48 hrs by Western blot analysis relative to control; assay type: functional, cell-based; conditions: U-87MG ATCC, dose 1-4 µM
U-251 [16] = experiment: Induction of apoptosis in human U-251 cells assessed as increase in ROS generation at 1 to 4 uM incubated for 48 hrs […] relative to control; assay type: functional, cell-based; conditions: dose 1-4 µM
U-251 [17] = experiment: Cytotoxicity against human U-251 cells assessed as cell viability at 4 uM measured up to 24 hrs; assay type: functional; conditions: U-251, 24 h, time hrs <=24, read-out: Activity
U-87 MG [18] = experiment: Induction of apoptosis in human U-87 MG cells assessed as early apoptotic cells at 2 uM incubated for 48 hrs by […] double staining based flow cytometry assay (reference value: 0.63%); assay type: functional, U-87MG ATCC
C6 [19] = experiment: Antitumor activity against rat C6 cells inoculated orthotopic Sprague-Dawley rat model assessed as decrease in p-STAT3 in tumor tissue at 50 mg/kg, ip twice a day treated 3 days after tumor cell injection measured for 13 days after tumor implantation by Western blot analysis; assay type: functional, organism-based; conditions: time 3.0 day
[20] = Plasma concentration in Sprague-Dawley rat at 60 mg/kg, ip measured up to 24 hrs by LC-MS analysis; assay type: ADME, organism-based
[21] = molecular target: Signal transducer and activator of transcription 3 (Homo sapiens) (UniProt P40763); experiment: Inhibition STAT3 phosphorylation in human U-87 MG cells incubated up to 8 hrs by Western blot analysis; assay type: cell-based; conditions: time hrs <=8
[22] = Cmax in Sprague-Dawley rat at 60 mg/kg, ip measured up to 24 hrs by LC-MS analysis; assay type: ADME, organism-based; parameters: route intraperitoneal, dose 60 mg/kg, time <=24; conditions: in vivo
U-87MG ATCC = experiment: Reduction in MMP9 expression in human U-87 MG cells incubated for 24 hrs by Western blot analysis; assay type: functional, cell-based; conditions: dose 1-4 µM
U-251 [23] = experiment: Induction of apoptosis in human U-251 cells assessed as increase in cytochrome c release at 1 to 4 uM incubated for 48 hrs by Western blot analysis relative to control; assay type: functional, cell-based; conditions: dose 1-4 µM
U-87 MG [24] = experiment: Anti-invasion activity against human U-87 MG cells assessed as inhibition of invasion incubated for 24 hrs by matrigel trans well plate assay; assay type: functional, cell-based; conditions: U-87MG ATCC
U-87 MG [25] = experiment: Induction of apoptosis in human U-87 MG cells assessed as late apoptotic cells at 2 uM incubated for 48 hrs by […] double staining based flow cytometry assay (reference value: 0.61%); assay type: functional, U-87MG ATCC
U-251 [26] = experiment: Anti-invasion activity against human U-251 cells assessed as inhibition of invasion incubated for 24 hrs by matrigel trans well plate assay; assay type: functional, cell-based; conditions: dose 1-4 µM
U-251 [27] = experiment: Induction of apoptosis in human U-251 cells assessed as necrotic cells at 4 uM incubated for 48 hrs by […] double staining based flow cytometry assay (reference value: 1.32%); assay type: functional
U-251 [28] = experiment: Induction of apoptosis in human U-251 cells assessed as early apoptotic cells at 4 uM incubated for 48 hrs by […] double staining based flow cytometry assay (reference value: 0.73%); assay type: functional
U-87 MG [29] = experiment: Induction of apoptosis in human U-87 MG cells assessed as necrotic cells at 8 uM incubated for 48 hrs by Annexin VIM double staining based flow cytometry assay (reference value: 0.91%); assay type: functional, U-87MG ATCC
U-251 [30] = experiment: Induction of apoptosis in human U-251 cells assessed as late apoptotic cells at 8 uM incubated for 48 hrs by […] double staining based flow cytometry assay (reference value: 1.39%); assay type: functional
[31] = AUC (0 to t) in Sprague-Dawley rat at 60 mg/kg, ip measured up to 24 hrs by LC-MS analysis; assay type: ADME, organism-based; parameters: route intraperitoneal, dose 60 mg/kg, time <=24; conditions: in vivo
U-251 [32] = experiment: Induction of apoptosis in human U-251 cells assessed as decrease in Bcl2/Bax ratio at 2 to 4 uM incubated for 48 hrs by Western blot analysis relative to control; assay type: functional, cell-based; conditions: dose 2-4 µM
U-87 MG [33] = experiment: Antiproliferative activity against human U-87 MG cells assessed as colony formation ratio at 4 uM measured after 24 hrs by plate clone formation assay relative to control; assay type: functional, U-87MG ATCC
U-251 [34] = experiment: Induction of apoptosis in human U-251 cells assessed as viable cells at 8 uM incubated for 48 hrs by […] double staining based flow cytometry assay (reference value: 96.6%); assay type: functional; conditions: read-out: Activity
[35] = Toxicity in rat C6 cells inoculated orthotopic Sprague-Dawley rat model assessed as autonomic movement at 50 mg/kg, ip twice a day administered for 13 days of tumor implantation by open field test; assay type: organism-based; conditions: in vivo, 312 h, time 13 day

Signal transducer and activator of transcription 3 (Homo sapiens), sequence (P40763 whole entry): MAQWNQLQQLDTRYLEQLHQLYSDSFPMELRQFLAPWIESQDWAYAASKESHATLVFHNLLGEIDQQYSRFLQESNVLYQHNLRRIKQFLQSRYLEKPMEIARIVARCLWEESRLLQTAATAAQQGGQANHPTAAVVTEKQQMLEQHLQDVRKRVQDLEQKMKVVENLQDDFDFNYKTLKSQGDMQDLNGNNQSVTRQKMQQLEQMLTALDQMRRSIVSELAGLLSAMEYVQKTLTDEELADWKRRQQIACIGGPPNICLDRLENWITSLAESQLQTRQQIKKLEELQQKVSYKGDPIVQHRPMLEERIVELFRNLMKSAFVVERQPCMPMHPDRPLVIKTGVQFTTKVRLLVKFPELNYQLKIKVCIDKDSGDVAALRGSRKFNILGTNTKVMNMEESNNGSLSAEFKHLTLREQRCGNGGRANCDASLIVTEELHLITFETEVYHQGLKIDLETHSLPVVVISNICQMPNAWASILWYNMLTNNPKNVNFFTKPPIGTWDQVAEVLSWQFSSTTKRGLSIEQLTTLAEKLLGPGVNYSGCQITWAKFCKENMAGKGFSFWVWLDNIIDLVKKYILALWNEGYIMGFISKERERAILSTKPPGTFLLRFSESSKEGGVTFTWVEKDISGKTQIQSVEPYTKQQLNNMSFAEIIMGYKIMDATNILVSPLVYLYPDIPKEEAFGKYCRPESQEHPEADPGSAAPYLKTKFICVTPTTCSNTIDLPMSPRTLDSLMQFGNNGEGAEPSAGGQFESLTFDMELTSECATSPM

**Q.** For `COc1cc(Nc2ccccc2C(=O)NCCc2c[nH]c3ccccc23)cc(OC)c1OC`, which Activity (U-251 [1]) is on record?
**A.** 17.4%

**Q.** And the Activity (U-87 MG [2])?
**A.** Active

**Q.** What about the Activity [3] of the same compound?
**A.** Non-Toxic

**Q.** What about the Activity (U-251 [4]) of the same compound?
**A.** Active

**Q.** And the Activity (U-251 [5])?
**A.** Active

**Q.** What about the Activity (U-87 MG [6]) of the same compound?
**A.** 68.2%

**Q.** And the Activity (U-87 MG [7])?
**A.** Active

**Q.** What about the viability at 2 µM (U-251 [8]) of the same compound?
**A.** 73.4%

**Q.** What about the viability at 4 µM (U-87 MG [9]) of the same compound?
**A.** 80%

**Q.** What about the Activity [10] of the same compound?
**A.** Non-Toxic

**Q.** What about the viability at 4 µM (U-87 MG [11]) of the same compound?
**A.** 88.5%

**Q.** And the Activity (C6 [12])?
**A.** Active

**Q.** What about the Activity (U-251 [13]) of the same compound?
**A.** 7.24%

**Q.** And the Tmax [14]?
**A.** 25.2 min

**Q.** What about the Activity (U-87 MG [15]) of the same compound?
**A.** Active

**Q.** And the Activity (U-251 [16])?
**A.** Active

**Q.** What about the viability at 4 µM (U-251 [17]) of the same compound?
**A.** 80%

**Q.** What about the Activity (U-87 MG [18]) of the same compound?
**A.** 2.17%

**Q.** What about the Activity (C6 [19]) of the same compound?
**A.** Active

**Q.** And the concentration at 24 h [20]?
**A.** 200 ng/mL

**Q.** And the inhibition [21]?
**A.** Active

**Q.** What about the Cmax [22] of the same compound?
**A.** 1150 ng/mL

**Q.** What about the Activity (U-87MG ATCC) of the same compound?
**A.** Dose-Dependent Effect

**Q.** What about the Activity (U-251 [23]) of the same compound?
**A.** Active

**Q.** And the Activity (U-87 MG [24])?
**A.** Active

**Q.** What about the Activity (U-87 MG [25]) of the same compound?
**A.** 1.53%

**Q.** And the Activity (U-251 [26])?
**A.** Active

**Q.** And the Activity (U-251 [27])?
**A.** 4.78%

**Q.** What about the Activity (U-251 [28]) of the same compound?
**A.** 7.95%

**Q.** And the Activity (U-87 MG [29])?
**A.** 1.1%

**Q.** And the Activity (U-251 [30])?
**A.** 26.2%

**Q.** And the AUC(0-t) at 24 h [31]?
**A.** 7330 ng·h/mL

**Q.** What about the Activity (U-251 [32]) of the same compound?
**A.** Active

**Q.** And the Activity (U-87 MG [33])?
**A.** 0%

**Q.** What about the viability at 8 µM (U-251 [34]) of the same compound?
**A.** 56.6%

**Q.** And the Activity [35]?
**A.** Non-Toxic
